Measured values published in US20120258980A1, “Antibacterial Agent for Drug-Resistant Bacteria, Method for Screening for Same, and Use of Same” (priority 2009, published 2012).
Values after ≈ are worked out from the molar mass of the structure shown. Where two headings read alike, the source gives them in different places.

Key:
[1] = tested on: MRSA, CA-MRSA and MSSA of Staphylococcus aureus; assay: MIC measurement, Test Example 4 (MRSA, CA-MRSA and MSSA strains); assay type: cell-based; settings: Staphylococcus aureus
Method in brief: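 S. aureus strains (FDA209P control) grown overnight in TSB at 37° C, resuspended in CAMHB, adjusted to A578 0.3 and diluted 500-fold. Equal volume added to CAMHB with serial compound concentrations, incubated statically overnight at 37° C. MIC read visually as lowest concentration without turbidity.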

VRSA clinical isolates = assay: microbe, parasite or virus in culture; assay type: cell-based; settings: Staphylococcus aureus
Method: Each of the bacterial strains listed in Table 1-1 was shake-cultured at 37° C. overnight in 4 mL of a medium (Tryptical Soy Broth: TSB, product of Becton Dickinson and Company). FDA209P was used as a control.
After completion of culturing, the resultant culture was suspended in a cation-adjusted Mueller Hinton Broth (CAMHB, product of Becton Dickinson and Company). Then, the obtained bacterial culture was adjusted in absorbance with the CAMHB so that the absorbance at 578 nm of the bacterial culture was adjusted to 0.3 measured by an absorption spectrometer. In addition, the resultant bacterial culture was 500-fold diluted with the CAMHB.
Each of the 500-fold diluted, pre-cultured bacterial cultures was added at 50 μL/well to the CAMHB containing the quinolones and the nybomycins at various concentrations (50 μL/well), followed by statically culturing at 37° C. overnight.
After completion of culturing, the growth of the bacteria was visually determined based on turbidity to measure MIC in each bacterial strain.
Here, the glycopeptides used were VCM and TEIC. The β-lactam used was OXA.

[2] = tested on: methicillin-susceptible S. aureus (MSSA), MRSA and mutants thereof; assay: MIC measurement, Test Example 3 (MSSA, MRSA and sequential gyrA/grlA quinolone-resistant mutants); assay type: cell-based, Staphylococcus aureus; settings: Staphylococcus aureus
Method in brief: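 Clinical isolates and stepwise gyrA/grlA quinolone-resistant mutants grown overnight at 37° C in TSB, adjusted to A578 0.3 in CAMHB, diluted 500-fold and mixed 1:1 with drug dilutions in CAMHB.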

Enterococcus faecalis = assay: MIC measurement, Test Example 6 (enterococcus); assay type: cell-based; settings: Enterococcus faecalis, read-out: MIC
Method in brief: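 E. faecalis strains, including vancomycin-resistant NCTC12201 and NCTC12203, pre-grown overnight in TSB at 37° C, set to A578 0.3 in CAMHB, then diluted 500-fold.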

[3] = ATCC 29213 / MRSA / MSSA, ATCC 29213, MSSA
[4] = FDA209P / MRSA / MSSA, FDA209P, MSSA
[5] = MRSA / MSSA / NCTC 8325, NCTC 8325, MSSA
[6] = MRSA / MSSA / USA300, USA300 FPR3757, CA-MRSA
[7] = MR5867-4, fourth-step mutant, further gyrA E88K
[8] = MS5935-3, third-step mutant, further grlA E84K
[9] = MS5952-3, third-step mutant, further grlA A116V
[10] = E. faecalis 36-15672, quinolone-susceptible enterococci
[11] = E. faecalis 36-15673, quinolone-susceptible enterococci
[12] = E. faecalis 36-15678, quinolone-susceptible enterococci
[13] = E. faecalis 36-15686, quinolone-resistant enterococci
[14] = E. faecalis 36-15688, quinolone-susceptible enterococci
[15] = E. faecalis 36-15694, quinolone-resistant enterococci
[16] = E. faecalis 36-15696, quinolone-susceptible enterococci
[17] = E. faecalis 36-15703, quinolone-resistant enterococci
[18] = E. faecalis 36-15716, quinolone-resistant enterococci
[19] = E. faecalis 36-15718, quinolone-susceptible enterococci
[20] = E. faecalis 36-15720, quinolone-susceptible enterococci
[21] = E. faecalis 36-15722, quinolone-resistant enterococci
[22] = E. faecalis 36-15726, quinolone-resistant enterococci
[23] = E. faecalis 36-15730, quinolone-susceptible enterococci
[24] = E. faecalis 36-15736, quinolone-susceptible enterococci
[25] = E. faecalis 36-15741, quinolone-susceptible enterococci
[26] = NCTC 12201 / VRE, E. faecalis NCTC12201, vancomycin-resistant (VRE), quinolone-susceptible enterococci
[27] = NCTC 12203 / VRE, E. faecalis NCTC12203, vancomycin-resistant (VRE), quinolone-susceptible enterococci

C[C@H]1COc2c(N3CCN(C)CC3)c(F)cc3c(=O)c(C(=O)O)cn1c23 [LVFX, levofloxacin]
MIC [1, 3]: 0.125 µg/mL (≈ 0.346 µM)
MIC ([1]; COL, MRSA): 0.5 µg/mL (≈ 1.38 µM)
MIC [1, 4]: ≤ 0.063 µg/mL
MIC ([1]; ISA12-1, MRSA): 0.25 µg/mL (≈ 0.692 µM)
MIC ([1]; ISA12-2, MRSA): 0.25 µg/mL (≈ 0.692 µM)
MIC ([1]; ISA35-1, MRSA): 1 µg/mL (≈ 2.77 µM)
MIC ([1]; ISA37-1, MSSA): 0.25 µg/mL (≈ 0.692 µM)
MIC ([1]; ISA49-1, MSSA): 0.25 µg/mL (≈ 0.692 µM)
MIC ([1]; ISA51-1, MSSA): 0.25 µg/mL (≈ 0.692 µM)
MIC ([1]; ISA56-3, MRSA): 0.25 µg/mL (≈ 0.692 µM)
MIC ([1]; ISA58-1, MRSA): 0.5 µg/mL (≈ 1.38 µM)
MIC ([1]; ISA62-1, MRSA): 0.25 µg/mL (≈ 0.692 µM)
MIC ([1]; ISA73-1, MSSA): 0.125 µg/mL (≈ 0.346 µM)
MIC ([1]; KBSA32, MRSA): 0.125 µg/mL (≈ 0.346 µM)
MIC ([1]; KBSA34, MRSA): 0.25 µg/mL (≈ 0.692 µM)
MIC ([1]; KBSA72, MRSA): > 128 µg/mL
MIC ([1]; KBSA96, MRSA): 8 µg/mL (≈ 22.1 µM)
MIC ([1]; KBSA171, MRSA): 16 µg/mL (≈ 44.3 µM)
MIC ([1]; KSA24, MRSA): 8 µg/mL (≈ 22.1 µM)
MIC ([1]; KSA31, MRSA): 4 µg/mL (≈ 11.1 µM)
MIC ([1]; KSA36, MRSA): > 128 µg/mL
MIC [1, 5]: 0.25 µg/mL (≈ 0.692 µM)
MIC [1, 6]: 32 µg/mL (≈ 88.6 µM)
MIC ([1]; MW2, CA-MRSA): 0.125 µg/mL (≈ 0.346 µM)
MIC ([1]; N315, MRSA): 0.125 µg/mL (≈ 0.346 µM)
MIC (VRSA clinical isolates; VRS1, VRSA, Michigan): 16 µg/mL (≈ 44.3 µM)
MIC (VRSA clinical isolates; VRS2, VRSA, Pennsylvania): 16 µg/mL (≈ 44.3 µM)
MIC (VRSA clinical isolates; VRS3, VRSA, New York): 16 µg/mL (≈ 44.3 µM)
MIC (VRSA clinical isolates; VRS4, VRSA, New York): 32 µg/mL (≈ 88.6 µM)
MIC (VRSA clinical isolates; VRS5, VRSA, Michigan): > 128 µg/mL
MIC (VRSA clinical isolates; VRS6, VRSA, Michigan): 32 µg/mL (≈ 88.6 µM)
MIC (VRSA clinical isolates; VRS7, VRSA, Michigan): 32 µg/mL (≈ 88.6 µM)
MIC ([2]; FDA209P / MRSA / MSSA, FDA209P (MSSA), control, read-out: MIC): ≤ 0.063 µg/mL
MIC [2, 7]: > 128 µg/mL
MIC [2, 8]: 64 µg/mL (≈ 177 µM)
MIC [2, 9]: 32 µg/mL (≈ 88.6 µM)
MIC (Enterococcus faecalis; [10]): 1 µg/mL (≈ 2.77 µM)
MIC (Enterococcus faecalis; [11]): 1 µg/mL (≈ 2.77 µM)
MIC (Enterococcus faecalis; [12]): 1 µg/mL (≈ 2.77 µM)
MIC (Enterococcus faecalis; [13]): 64 µg/mL (≈ 177 µM)
MIC (Enterococcus faecalis; [14]): 1 µg/mL (≈ 2.77 µM)
MIC (Enterococcus faecalis; [15]): 64 µg/mL (≈ 177 µM)
MIC (Enterococcus faecalis; [16]): 1 µg/mL (≈ 2.77 µM)
MIC (Enterococcus faecalis; [17]): 32 µg/mL (≈ 88.6 µM)
MIC (Enterococcus faecalis; [18]): 32 µg/mL (≈ 88.6 µM)
MIC (Enterococcus faecalis; [19]): 2 µg/mL (≈ 5.53 µM)
MIC (Enterococcus faecalis; [20]): 1 µg/mL (≈ 2.77 µM)
MIC (Enterococcus faecalis; [21]): 64 µg/mL (≈ 177 µM)
MIC (Enterococcus faecalis; [22]): 64 µg/mL (≈ 177 µM)
MIC (Enterococcus faecalis; [23]): 2 µg/mL (≈ 5.53 µM)
MIC (Enterococcus faecalis; [24]): 1 µg/mL (≈ 2.77 µM)
MIC (Enterococcus faecalis; [25]): 2 µg/mL (≈ 5.53 µM)
MIC (Enterococcus faecalis; [26]): 1 µg/mL (≈ 2.77 µM)
MIC (Enterococcus faecalis; [27]): 1 µg/mL (≈ 2.77 µM)

CC1COc2c(N3CCN(C)CC3)c(F)cc3c(=O)c(C(=O)O)cn1c23 (stereo not drawn) [OFLX, ofloxacin]
MIC [1, 3]: 0.25 µg/mL (≈ 0.692 µM)
MIC ([1]; COL, MRSA): 0.5 µg/mL (≈ 1.38 µM)
MIC [1, 4]: 0.125 µg/mL (≈ 0.346 µM)
MIC ([1]; ISA12-1, MRSA): 0.5 µg/mL (≈ 1.38 µM)
MIC ([1]; ISA12-2, MRSA): 0.5 µg/mL (≈ 1.38 µM)
MIC ([1]; ISA35-1, MRSA): 2 µg/mL (≈ 5.53 µM)
MIC ([1]; ISA37-1, MSSA): 0.25 µg/mL (≈ 0.692 µM)
MIC ([1]; ISA49-1, MSSA): 0.25 µg/mL (≈ 0.692 µM)
MIC ([1]; ISA51-1, MSSA): 0.5 µg/mL (≈ 1.38 µM)
MIC ([1]; ISA56-3, MRSA): 0.5 µg/mL (≈ 1.38 µM)
MIC ([1]; ISA58-1, MRSA): 0.5 µg/mL (≈ 1.38 µM)
MIC ([1]; ISA62-1, MRSA): 0.25 µg/mL (≈ 0.692 µM)
MIC ([1]; ISA73-1, MSSA): 0.25 µg/mL (≈ 0.692 µM)
MIC ([1]; KBSA32, MRSA): 0.25 µg/mL (≈ 0.692 µM)
MIC ([1]; KBSA34, MRSA): 0.5 µg/mL (≈ 1.38 µM)
MIC ([1]; KBSA72, MRSA): > 128 µg/mL
MIC ([1]; KBSA96, MRSA): 16 µg/mL (≈ 44.3 µM)
MIC ([1]; KBSA171, MRSA): 32 µg/mL (≈ 88.6 µM)
MIC ([1]; KSA24, MRSA): 32 µg/mL (≈ 88.6 µM)
MIC ([1]; KSA31, MRSA): 8 µg/mL (≈ 22.1 µM)
MIC ([1]; KSA36, MRSA): > 128 µg/mL
MIC [1, 5]: 0.25 µg/mL (≈ 0.692 µM)
MIC [1, 6]: 16 µg/mL (≈ 44.3 µM)
MIC ([1]; MW2, CA-MRSA): 0.5 µg/mL (≈ 1.38 µM)
MIC ([1]; N315, MRSA): 0.25 µg/mL (≈ 0.692 µM)
MIC (VRSA clinical isolates; VRS1, VRSA, Michigan): 32 µg/mL (≈ 88.6 µM)
MIC (VRSA clinical isolates; VRS2, VRSA, Pennsylvania): 32 µg/mL (≈ 88.6 µM)
MIC (VRSA clinical isolates; VRS3, VRSA, New York): 32 µg/mL (≈ 88.6 µM)
MIC (VRSA clinical isolates; VRS4, VRSA, New York): 32 µg/mL (≈ 88.6 µM)
MIC (VRSA clinical isolates; VRS5, VRSA, Michigan): > 128 µg/mL
MIC (VRSA clinical isolates; VRS6, VRSA, Michigan): 64 µg/mL (≈ 177 µM)
MIC (VRSA clinical isolates; VRS7, VRSA, Michigan): 64 µg/mL (≈ 177 µM)
MIC ([2]; MR5867-1, first-step quinolone-resistant mutant, grlA E84K): 1 µg/mL (≈ 2.77 µM)
MIC ([2]; MR5867-3, third-step mutant, further grlA S80F): 64 µg/mL (≈ 177 µM)
MIC [2, 7]: > 128 µg/mL
MIC ([2]; MS5935-1, first-step quinolone-resistant mutant, grlA S80F): 1 µg/mL (≈ 2.77 µM)
MIC [2, 8]: 128 µg/mL (≈ 354 µM)
MIC ([2]; MS5952-1, first-step quinolone-resistant mutant, grlA S80Y): 1 µg/mL (≈ 2.77 µM)
MIC [2, 9]: 64 µg/mL (≈ 177 µM)
MIC (Enterococcus faecalis; [10]): 2 µg/mL (≈ 5.53 µM)
MIC (Enterococcus faecalis; [11]): 2 µg/mL (≈ 5.53 µM)
MIC (Enterococcus faecalis; [12]): 2 µg/mL (≈ 5.53 µM)
MIC (Enterococcus faecalis; [13]): 128 µg/mL (≈ 354 µM)
MIC (Enterococcus faecalis; [14]): 2 µg/mL (≈ 5.53 µM)
MIC (Enterococcus faecalis; [15]): 64 µg/mL (≈ 177 µM)
MIC (Enterococcus faecalis; [16]): 2 µg/mL (≈ 5.53 µM)
MIC (Enterococcus faecalis; [17]): 64 µg/mL (≈ 177 µM)
MIC (Enterococcus faecalis; [18]): 128 µg/mL (≈ 354 µM)
MIC (Enterococcus faecalis; [19]): 2 µg/mL (≈ 5.53 µM)
MIC (Enterococcus faecalis; [20]): 2 µg/mL (≈ 5.53 µM)
MIC (Enterococcus faecalis; [21]): 64 µg/mL (≈ 177 µM)
MIC (Enterococcus faecalis; [22]): 128 µg/mL (≈ 354 µM)
MIC (Enterococcus faecalis; [23]): 4 µg/mL (≈ 11.1 µM)
MIC (Enterococcus faecalis; [24]): 2 µg/mL (≈ 5.53 µM)
MIC (Enterococcus faecalis; [25]): 4 µg/mL (≈ 11.1 µM)
MIC (Enterococcus faecalis; [26]): 2 µg/mL (≈ 5.53 µM)
MIC (Enterococcus faecalis; [27]): 2 µg/mL (≈ 5.53 µM)
